Reference: ChEMBL document CHEMBL1136849, “Anthranilimide based glycogen phosphorylase inhibitors for the treatment of type 2 diabetes. Part 3: X-ray crystallographic characterization, core and urea optimization and in vivo efficacy” (Bioorg Med Chem Lett, 2009)

How the values were obtained:
[1] = biological target: T1, Glycogen phosphorylase, liver form (Homo sapiens, UniProt P06737); assay: Inhibition of human glycogen phosphorylase a in HepG2 cells assessed as inhibition of forskolin-stimulated glycogenolysis; format: cell-based
T1 sequence (P06737 whole entry): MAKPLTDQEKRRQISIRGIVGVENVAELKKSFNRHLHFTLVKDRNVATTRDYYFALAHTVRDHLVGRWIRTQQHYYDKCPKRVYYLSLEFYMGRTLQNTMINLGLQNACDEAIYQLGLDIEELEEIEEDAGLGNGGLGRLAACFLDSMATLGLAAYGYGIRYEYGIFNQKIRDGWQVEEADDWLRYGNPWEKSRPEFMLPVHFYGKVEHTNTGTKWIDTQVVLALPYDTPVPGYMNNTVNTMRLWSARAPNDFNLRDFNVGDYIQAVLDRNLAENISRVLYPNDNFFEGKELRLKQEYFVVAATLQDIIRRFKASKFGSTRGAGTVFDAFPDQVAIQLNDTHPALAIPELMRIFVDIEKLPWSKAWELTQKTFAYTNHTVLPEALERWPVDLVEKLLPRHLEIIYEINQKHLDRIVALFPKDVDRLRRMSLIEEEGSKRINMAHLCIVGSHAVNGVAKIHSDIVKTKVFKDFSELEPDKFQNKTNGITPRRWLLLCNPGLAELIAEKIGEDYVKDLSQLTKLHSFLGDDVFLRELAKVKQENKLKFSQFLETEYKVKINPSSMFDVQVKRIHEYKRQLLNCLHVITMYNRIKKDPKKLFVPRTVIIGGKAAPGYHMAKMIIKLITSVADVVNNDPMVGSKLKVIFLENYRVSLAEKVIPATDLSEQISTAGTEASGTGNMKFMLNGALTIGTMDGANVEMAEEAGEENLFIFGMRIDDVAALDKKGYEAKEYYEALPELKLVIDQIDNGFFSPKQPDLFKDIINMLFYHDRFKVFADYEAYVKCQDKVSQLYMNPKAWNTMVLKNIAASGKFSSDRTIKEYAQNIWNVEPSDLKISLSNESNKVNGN

[2] = biological target: T1, Glycogen phosphorylase, liver form; assay: Inhibition of human liver glycogen phosphorylase a by coupled kinetic fluorescent intensity assay
[3] = system: Rattus norvegicus; assay: Reduction of glucagon-induced glucose AUC in CD rat at 5 mg/kg, po preincubated for 2 hrs before glucagon challenge; format: functional; design: scale not given: the % may be the effect or the level left
[4] = Cmax in rat at 5 mg/kg, po; format: ADME, organism-based; design: dose 5 mg/kg, route oral; conditions: in vivo
[5] = Bioavailability in rat at 1 mg/kg, iv and 5 mg/kg, po; format: ADME, organism-based; conditions: in vivo
[6] = system: Mus musculus; assay: Antidiabetic effect in ob/ob B6.V-lep[ob]/J mouse assessed as decrease in blood glucose level at 15 mg/kg, po after 3 hrs; format: functional
[7] = system: Rattus norvegicus; assay: Reduction of glucagon-induced glucose AUC in CD rat at 2 mg/kg, po preincubated for 2 hrs before glucagon challenge; format: functional; design: scale not given: the % may be the effect or the level left
[8] = Clearance in rat at 1 mg/kg, iv and 5 mg/kg, po; format: ADME, organism-based; conditions: in vivo
[9] = Half life in rat at 1 mg/kg, iv and 5 mg/kg, po; format: ADME, organism-based; conditions: in vivo

| IC50 [1] | IC50 [2] | Structure (SMILES) | further results |
| --- | --- | --- | --- |
| 0.109 µM | 0.008 µM | COc1cccc(-c2ccc(C(=O)N[C@H](C(=O)O)[C@@H](C)OC(C)(C)C)c(NC(=O)Nc3c(C)cc(C)cc3C)c2)c1 |  |
| 0.145 µM |  | Cc1cc(CC2CC2)cc(C)c1NC(=O)Nc1cc(-c2cccc(F)c2)ccc1C(=O)N[C@H](C(=O)O)[C@@H](C)OC(C)(C)C | Activity [3]: 65%; Cmax [4]: 536 ng/mL; bioavailability [5]: 27%; Activity [6]: 103 mg/dL; Activity [7]: 62%; clearance [8]: 15 mL/min/kg; half-life [9]: 2.3 h |
| 0.126 µM | 0.01 µM | Cc1cc(C)c(NC(=O)Nc2cc(-c3ccccc3)ccc2C(=O)N[C@H](C(=O)O)[C@@H](C)OC(C)(C)C)c(C)c1 |  |
| 0.716 µM | 0.049 µM | CCCCc1cc(C)c(NC(=O)Nc2cc(F)ccc2C(=O)N[C@H](C(=O)O)C2CCCCC2)c(C)c1 |  |
| 0.104 µM | 0.015 µM | Cc1cc(C)c(NC(=O)Nc2cc(-c3cccc(F)c3)ccc2C(=O)N[C@H](C(=O)O)[C@@H](C)OC(C)(C)C)c(C)c1 | Activity [3]: 32%; Activity [7]: 10% |
| 1.68 µM | 0.542 µM | Cc1cc(C)c(NC(=O)Nc2ccccc2C(=O)N[C@H](C(=O)O)[C@@H](C)OC(C)(C)C)c(C)c1 |  |
| 0.147 µM | 0.01 µM | CCCc1cc(C)c(NC(=O)Nc2cc(F)ccc2C(=O)N[C@H](C(=O)O)[C@@H](C)OC(C)(C)C)c(C)c1 |  |
| 0.513 µM | 0.087 µM | CCc1cc(C)c(NC(=O)Nc2cc(F)ccc2C(=O)N[C@H](C(=O)O)C2CCCCC2)c(C)c1 |  |
| 0.088 µM | 0.007 µM | Cc1cc(C)c(NC(=O)Nc2cc(-c3ccc(F)cc3)ccc2C(=O)N[C@H](C(=O)O)[C@@H](C)OC(C)(C)C)c(C)c1 |  |

Continued, molecule first:

| Structure (SMILES) | IC50 [1] | IC50 [2] | further results |
| --- | --- | --- | --- |
| Cc1cc(C)c(NC(=O)Nc2cc(-c3ccc(F)c(F)c3)ccc2C(=O)N[C@H](C(=O)O)[C@@H](C)OC(C)(C)C)c(C)c1 | 0.171 µM | 0.013 µM |  |
| Cc1cc(C)c(NC(=O)Nc2cc(F)ccc2C(=O)N[C@H](C(=O)O)[C@@H](C)OC(C)(C)C)c(C)c1 | 1.82 µM | 0.506 µM |  |
| Cc1cc(C)c(NC(=O)Nc2cc(F)ccc2C(=O)N[C@H](C(=O)O)C2CCCCC2)c(C)c1 | 1.03 µM | 0.143 µM |  |
| Cc1cc(C)c(NC(=O)Nc2cc3ccccc3cc2C(=O)N[C@H](C(=O)O)[C@@H](C)OC(C)(C)C)c(C)c1 |  |  | Activity [3]: 25% |
| COc1ccc(-c2ccc(C(=O)N[C@H](C(=O)O)[C@@H](C)OC(C)(C)C)c(NC(=O)Nc3c(C)cc(C)cc3C)c2)cc1 | 0.034 µM | 0.003 µM |  |
| CCCc1cc(C)c(NC(=O)Nc2cc(F)ccc2C(=O)N[C@H](C(=O)O)C2CCCCC2)c(C)c1 | 0.229 µM | 0.019 µM |  |
| Cc1cc(CC2CC2)cc(C)c1NC(=O)Nc1cc(F)ccc1C(=O)N[C@H](C(=O)O)C1CCCCC1 | 0.384 µM | 0.013 µM |  |
| Cc1cccc(C)c1NC(=O)Nc1cc(F)ccc1C(=O)N[C@H](C(=O)O)C1CCCCC1 | 8.26 µM | 1.07 µM |  |
| Cc1cc(CC2CC2)cc(C)c1NC(=O)Nc1cc(F)ccc1C(=O)N[C@H](C(=O)O)[C@@H](C)OC(C)(C)C | 0.133 µM | 0.004 µM | Activity [3]: 36%; Activity [7]: 22% |
| CCCc1cc(C)c(NC(=O)Nc2cc(-c3ccc(OC)cc3)ccc2C(=O)N[C@H](C(=O)O)[C@@H](C)OC(C)(C)C)c(C)c1 | 0.135 µM |  |  |
| CCCc1cc(C)c(NC(=O)Nc2cc(-c3ccc(F)c(F)c3)ccc2C(=O)N[C@H](C(=O)O)[C@@H](C)OC(C)(C)C)c(C)c1 | 0.181 µM | 0.007 µM |  |
| CCCc1cc(C)c(NC(=O)Nc2cc(-c3cccc(F)c3)ccc2C(=O)N[C@H](C(=O)O)[C@@H](C)OC(C)(C)C)c(C)c1 | 0.156 µM | 0.004 µM |  |
| COc1ccccc1-c1ccc(C(=O)N[C@H](C(=O)O)[C@@H](C)OC(C)(C)C)c(NC(=O)Nc2c(C)cc(C)cc2C)c1 | 0.353 µM | 0.028 µM |  |
